Assays:
Calcitonin (AM1/AM2) = experiment: cAMP HTRF assay, Calcitonin AM1/AM2; assay type: cell-based, human; details: CHO-K1, cAMP
Protocol: (§1) Receptor […] activity assays were performed using 8′OH-2-CF3-dihydroergotamine (8′OH-2-CF3-DHE). Table 1 summarizes the cell lines (CHO-K1/HEK293 transfected with relevant human receptor) and the assays performed to detect any agonist or antagonist activity.
cAMP HTRF (Gs) studies were conducted to monitor activity for 8′OH-2CF3-dihydroergotamine (8′OH-2CF3-DHE) against the receptors indicated in Table 1 above. Cells expressing the human recombinant receptor of interest were grown in media without antibiotic and detached by gentle flushing with PBS-EDTA (5 mM EDTA), recovered by centrifugation and resuspended in assay buffer (KRH: 5 mM KCl, 1.25 mM MgSO4, 124 mM NaCl, 25 mM HEPES, 13.3 mM glucose, 1.25 mM KH2PO4, 1.45 mM CaCl2, 0.5 g/L BSA). Dose response curves were performed in parallel with the reference compounds. For agonist tests (96-well plates), 12 μL of cells was mixed with 12 μL of the test compound at increasing concentrations and then incubated for 30 minutes at room temperature. Lysis buffer was added and after a 1 hour incubation, cAMP concentrations was determined according to the manufacturer specification with the HTRF kit. […] Lysis buffer was added and after a 1 hour incubation, cAMP concentrations were determined according to the manufacturer specification, with the HTRF kit.

OX1 = biological target: T1, OX1 (Homo sapiens, UniProt O43613); experiment: Aequorin assay, Orexin OX1; assay type: cell-based; details: antagonism, CHO-AEQ
T1 construct: expressed in transfected cells; host or cells: CHO-AEQ (CHO-K1 coexpressing mitochondrial apoaequorin)
Protocol: as §1
(§2) Aequorin assays were conducted to monitor activity for 8′OH-2CF3-dihydroergotamine (8′OH-2CF3-DHE) against the receptors indicated in Table 1 above (except for mGlu3 and mGlu5). CHO-K1 cells coexpressing mitochondrial apoaequorin and the recombinant human receptor of interest were grown to mid-log phase in culture media without antibiotics and then detached with PBS-EDTA, centrifuged and resuspended in assay buffer (DMEM/HAM's F12 with HEPES, without phenol red+0.1% BSA, protease free) at a concentration of 1×10^6 cell/mL. […]
(§3) 50 μL of the cell suspension was mixed with 50 μL of test or reference agonist in a 96-well plate. The resulting emission of light was recorded using Hamamatsu Functional Drug Screening System 6000 (FDSS 6000) luminometer. […]
(§4) To standardize the emission of recorded light (and determine of the “100% signal”) across plates and across different experiments, some wells contained 100 μM digitonin or a saturating concentration of ATP (20 μM).

Serotonin 5-HT1A = biological target: T2, Serotonin 5-HT1A (Homo sapiens, UniProt P08908); experiment: GTPγ[35S] assay, Serotonin 5-HT1A; assay type: biochemical; details: agonism, CHO-K1 membranes
T2 construct: expressed in transfected cells; host or cells: CHO-K1 (membrane extracts)
Protocol: as §1
(§5) GTPγS studies were conducted to monitor agonist activity for 8′OH-2CF3-dihydroergotamine (8′OH-2CF3-DHE) against the receptors indicated in Table 1 above. Reagents used were the following: Assay buffer (20 mM HEPES, pH 7.4; 100 mM NaCl; 10 μg/mL saponin; 30 mM MgCl2); Membranes (recombinant human receptor membrane extracts were thawed on ice and diluted in assay buffer to give 1000 μg/mL ([…]) and kept on ice); GDP (diluted in assay buffer to give 30 μM solution (3 μM final concentration); beads (PVT-WGA (Amersham, RPNQ001), diluted in assay buffer at 25 mg/mL (0.25 mg/10 μL)); GTPγ^35S (Perkin Elmer, NEG030X), diluted in assay buffer to give 0.1 nM (final concentration); and ligand (agonist/antagonist diluted in assay buffer).
(§6) Membranes were mixed with GDP (1:1) and incubated for at least 15 minutes on ice. In parallel GTPγ^35S was mixed with the beads (1:1) just before starting the reaction. […] The plates were then centrifuged for 10 minutes at 2000 rpm and incubated at room temperature for 1 hour and counted for 1 min/well with a Perkin Elmer TopCount reader.

Adrenergic α2B = biological target: T3, Adrenergic α2B (Homo sapiens, UniProt P18089); experiment: GTPγ[35S] assay, Adrenergic α2B; assay type: biochemical; details: antagonism, CHO-K1 membranes, read-out: Activity (Antagonism: IC50), Adrenergic a2B
T3 construct: expressed in transfected cells; host or cells: CHO-K1 (membrane extracts)
Protocol: as §1, §5, §6

Dopamine D3 = biological target: T4, Dopamine D3 (Homo sapiens, UniProt P35462); experiment: GTPγ[35S] assay, Dopamine D3; assay type: biochemical; details: agonism, CHO-K1 membranes
T4 construct: expressed in transfected cells; host or cells: CHO-K1 (membrane extracts)
Protocol: as §1, §5, §6

Adrenergic α2A = biological target: T5, Adrenergic α2A (Homo sapiens, UniProt P08913); experiment: GTPγ[35S] assay, Adrenergic α2A; assay type: biochemical; details: antagonism, CHO-K1 membranes, read-out: Activity (Antagonism: IC50), Adrenergic a2A
T5 construct: expressed in transfected cells; host or cells: CHO-K1 (membrane extracts)
Protocol: as §1, §5, §6

Dopamine D4 = biological target: T6, Dopamine D4 (Homo sapiens, UniProt P21917); experiment: GTPγ[35S] assay, Dopamine D4; assay type: biochemical; details: antagonism, CHO-K1 membranes
T6 construct: expressed in transfected cells; host or cells: CHO-K1 (membrane extracts)
Protocol: as §1, §5, §6

Adrenergic α1B = biological target: T7, Adrenergic α1B (Homo sapiens, UniProt P35368); experiment: Aequorin assay, Adrenergic α1B; assay type: cell-based; details: antagonism, CHO-K1 mAeq, read-out: Activity (Antagonism: IC50), Adrenergic a1B
T7 construct: expressed in transfected cells; host or cells: CHO-K1 mAeq
Protocol: as §1, §2, §3, §4

NK1 = biological target: T8, NK1 (Homo sapiens, UniProt P25103); experiment: Aequorin assay, Neurokinin NK1; assay type: cell-based; details: antagonism, CHO-AEQ
T8 construct: expressed in transfected cells; host or cells: CHO-AEQ (CHO-K1 coexpressing mitochondrial apoaequorin)
Protocol: as §1, §2, §3, §4

Dopamine D2L = biological target: T9, Dopamine D2L (Homo sapiens, UniProt P14416); experiment: GTPγ[35S] assay, Dopamine D2L; assay type: biochemical; details: agonism, CHO-K1 membranes
T9 construct: expressed in transfected cells; host or cells: CHO-K1 (membrane extracts)
Protocol: as §1, §5, §6

T2 sequence (P08908 whole entry): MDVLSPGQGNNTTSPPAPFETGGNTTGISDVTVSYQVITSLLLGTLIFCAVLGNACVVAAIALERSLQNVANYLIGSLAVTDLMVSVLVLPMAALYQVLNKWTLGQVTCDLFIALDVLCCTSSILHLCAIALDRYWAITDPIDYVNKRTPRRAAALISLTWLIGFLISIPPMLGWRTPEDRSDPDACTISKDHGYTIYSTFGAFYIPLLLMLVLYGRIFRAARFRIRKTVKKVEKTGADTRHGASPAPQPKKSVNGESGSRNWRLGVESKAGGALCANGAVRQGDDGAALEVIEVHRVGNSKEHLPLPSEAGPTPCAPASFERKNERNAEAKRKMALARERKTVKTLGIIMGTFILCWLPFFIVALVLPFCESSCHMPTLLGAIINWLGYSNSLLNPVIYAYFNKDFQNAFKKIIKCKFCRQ
T4 sequence (P35462 whole entry): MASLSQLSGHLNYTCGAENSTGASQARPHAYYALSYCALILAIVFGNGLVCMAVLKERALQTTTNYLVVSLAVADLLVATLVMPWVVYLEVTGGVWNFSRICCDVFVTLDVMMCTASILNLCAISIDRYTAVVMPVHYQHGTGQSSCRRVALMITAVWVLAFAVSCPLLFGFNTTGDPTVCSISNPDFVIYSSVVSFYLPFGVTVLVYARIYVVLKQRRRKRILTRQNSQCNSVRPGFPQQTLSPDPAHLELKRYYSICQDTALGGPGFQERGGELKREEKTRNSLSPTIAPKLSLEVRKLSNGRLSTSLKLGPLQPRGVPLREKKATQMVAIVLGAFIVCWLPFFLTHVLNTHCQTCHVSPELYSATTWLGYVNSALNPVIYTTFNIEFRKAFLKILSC
T7 sequence (P35368 whole entry): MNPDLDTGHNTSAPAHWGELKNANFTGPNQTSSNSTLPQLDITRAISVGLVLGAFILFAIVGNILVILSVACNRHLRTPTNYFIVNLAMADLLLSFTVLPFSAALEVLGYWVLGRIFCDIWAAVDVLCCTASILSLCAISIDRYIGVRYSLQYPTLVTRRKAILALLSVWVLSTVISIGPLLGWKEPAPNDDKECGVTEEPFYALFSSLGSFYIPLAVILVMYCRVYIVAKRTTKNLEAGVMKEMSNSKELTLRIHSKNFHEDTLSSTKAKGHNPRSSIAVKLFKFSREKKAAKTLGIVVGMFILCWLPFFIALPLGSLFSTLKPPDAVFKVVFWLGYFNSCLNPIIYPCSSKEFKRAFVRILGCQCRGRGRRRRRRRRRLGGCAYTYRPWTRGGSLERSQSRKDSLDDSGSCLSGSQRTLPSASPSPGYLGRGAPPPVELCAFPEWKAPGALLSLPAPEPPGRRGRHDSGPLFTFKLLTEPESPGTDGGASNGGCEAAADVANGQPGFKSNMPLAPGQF
T9 sequence (P14416 whole entry): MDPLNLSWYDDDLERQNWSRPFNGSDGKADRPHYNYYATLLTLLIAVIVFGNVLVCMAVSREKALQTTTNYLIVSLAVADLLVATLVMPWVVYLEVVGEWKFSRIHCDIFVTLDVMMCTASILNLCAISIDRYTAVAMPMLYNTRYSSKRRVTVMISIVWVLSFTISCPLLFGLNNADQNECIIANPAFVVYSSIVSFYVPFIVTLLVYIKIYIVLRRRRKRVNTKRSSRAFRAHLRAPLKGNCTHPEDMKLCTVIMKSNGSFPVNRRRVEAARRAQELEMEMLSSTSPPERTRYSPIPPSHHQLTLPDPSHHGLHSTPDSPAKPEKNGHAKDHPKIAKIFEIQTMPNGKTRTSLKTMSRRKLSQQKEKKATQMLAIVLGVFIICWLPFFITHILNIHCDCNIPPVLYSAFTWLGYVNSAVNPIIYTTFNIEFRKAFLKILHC
T6 sequence (P21917 whole entry): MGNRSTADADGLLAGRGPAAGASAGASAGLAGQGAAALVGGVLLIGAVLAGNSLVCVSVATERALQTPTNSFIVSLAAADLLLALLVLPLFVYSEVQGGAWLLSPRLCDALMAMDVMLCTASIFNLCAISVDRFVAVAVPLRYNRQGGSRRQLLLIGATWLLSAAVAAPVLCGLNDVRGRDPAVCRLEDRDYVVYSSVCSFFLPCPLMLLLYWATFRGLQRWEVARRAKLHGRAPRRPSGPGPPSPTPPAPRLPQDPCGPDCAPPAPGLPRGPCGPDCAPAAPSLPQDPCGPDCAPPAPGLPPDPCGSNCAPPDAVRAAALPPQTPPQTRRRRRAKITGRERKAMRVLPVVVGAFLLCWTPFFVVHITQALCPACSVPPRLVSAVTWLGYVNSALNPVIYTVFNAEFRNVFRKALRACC
T5 sequence (P08913 whole entry): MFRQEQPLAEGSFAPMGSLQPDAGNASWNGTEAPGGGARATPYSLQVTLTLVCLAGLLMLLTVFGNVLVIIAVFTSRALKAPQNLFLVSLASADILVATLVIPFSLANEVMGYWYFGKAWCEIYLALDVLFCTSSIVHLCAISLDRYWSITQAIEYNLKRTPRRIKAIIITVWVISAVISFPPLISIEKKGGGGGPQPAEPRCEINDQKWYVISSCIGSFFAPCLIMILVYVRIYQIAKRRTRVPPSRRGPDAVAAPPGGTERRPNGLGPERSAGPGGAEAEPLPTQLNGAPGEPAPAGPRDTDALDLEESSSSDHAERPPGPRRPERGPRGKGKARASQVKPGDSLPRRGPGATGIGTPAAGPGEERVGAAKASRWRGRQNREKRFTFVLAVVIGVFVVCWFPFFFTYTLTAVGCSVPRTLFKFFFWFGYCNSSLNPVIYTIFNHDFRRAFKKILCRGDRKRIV
T3 sequence (P18089 whole entry): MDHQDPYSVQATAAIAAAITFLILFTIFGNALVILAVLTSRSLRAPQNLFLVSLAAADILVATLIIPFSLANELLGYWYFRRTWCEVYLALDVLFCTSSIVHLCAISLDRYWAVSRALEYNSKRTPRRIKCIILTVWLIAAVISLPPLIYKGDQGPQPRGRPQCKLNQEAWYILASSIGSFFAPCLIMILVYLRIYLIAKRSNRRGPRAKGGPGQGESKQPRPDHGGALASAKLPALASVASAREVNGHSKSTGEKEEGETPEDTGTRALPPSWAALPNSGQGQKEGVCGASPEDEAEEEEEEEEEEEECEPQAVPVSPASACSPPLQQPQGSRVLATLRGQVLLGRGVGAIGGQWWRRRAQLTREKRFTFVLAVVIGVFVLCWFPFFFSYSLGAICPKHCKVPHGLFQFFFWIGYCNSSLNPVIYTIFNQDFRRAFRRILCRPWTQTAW
T1 sequence (O43613 whole entry): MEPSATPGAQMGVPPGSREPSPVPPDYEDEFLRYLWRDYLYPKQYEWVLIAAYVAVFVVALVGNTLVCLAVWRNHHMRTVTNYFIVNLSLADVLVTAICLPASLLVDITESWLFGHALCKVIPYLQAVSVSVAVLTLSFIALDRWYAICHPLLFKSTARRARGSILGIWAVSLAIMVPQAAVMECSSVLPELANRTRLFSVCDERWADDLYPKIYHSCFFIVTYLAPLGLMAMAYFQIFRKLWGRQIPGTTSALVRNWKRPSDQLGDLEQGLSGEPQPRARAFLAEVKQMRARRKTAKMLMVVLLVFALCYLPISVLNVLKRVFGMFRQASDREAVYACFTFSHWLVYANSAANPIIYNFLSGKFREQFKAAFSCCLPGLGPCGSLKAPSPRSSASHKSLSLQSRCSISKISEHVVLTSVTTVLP
T8 sequence (P25103 whole entry): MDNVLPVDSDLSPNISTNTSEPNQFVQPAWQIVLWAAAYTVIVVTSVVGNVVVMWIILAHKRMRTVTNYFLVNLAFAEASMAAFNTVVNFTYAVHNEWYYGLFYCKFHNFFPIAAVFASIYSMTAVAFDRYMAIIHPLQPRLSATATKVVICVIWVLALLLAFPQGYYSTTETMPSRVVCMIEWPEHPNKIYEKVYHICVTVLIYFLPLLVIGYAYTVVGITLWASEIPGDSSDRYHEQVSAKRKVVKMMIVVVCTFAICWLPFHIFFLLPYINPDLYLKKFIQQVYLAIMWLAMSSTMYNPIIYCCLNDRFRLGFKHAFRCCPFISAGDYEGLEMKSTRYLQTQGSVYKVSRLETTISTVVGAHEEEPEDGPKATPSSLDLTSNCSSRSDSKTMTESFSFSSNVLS

SMILES: CN1C[C@H](C(=O)N[C@]2(C)O[C@@]3(O)[C@@H]4CC[C@@H](O)N4C(=O)[C@H](Cc4ccccc4)N3C2=O)C[C@@H]2c3cccc4[nH]c(C(F)(F)F)c(c34)C[C@H]21 [8′OH-2-CF3-DHE, 8′-Hydroxy-2-CF3-dihydroergotamine]
- Activity (Agonism: EC50; Antagonism: IC50), Calcitonin (AM1/AM2) (Calcitonin (AM1/AM2)): Inactive
- IC50 (OX1): > 10000 nM
- EC50 (Serotonin 5-HT1A): 425 nM
- IC50 (Adrenergic α2B): 777 nM
- EC50 (Dopamine D3): 32.3 nM
- IC50 (Adrenergic α2A): 149 nM
- IC50 (Dopamine D4): > 10000 nM
- IC50 (Adrenergic α1B): 10.9 nM
- IC50 (NK1): > 1000 nM
- EC50 (Dopamine D2L): 17.3 nM
